What all share (assay type): cell-based
For assay [1], the target named is T1, α4β7 integrin (Homo sapiens (Human), UniProt P13612+P26010). Nature of the assay: MAdCAM-1/α4β7 integrin binding inhibitory activity evaluation test in the presence of serum (1). To be noted: RPMI-8866 cells binding to mouse MAdCAM-1/Fc, human serum at final concentration of 50%; read-out: α4β7 with serum added, IC50. Here is the method: (§1) The ability of test substances to inhibit the binding of a human B cell line, RPMI-8866, which is known to express α4β7 integrin, to MAdCAM-1 was measured. To 96-well microtiter plates, recombinant mouse MAdCAM-1/Fc (R&D systems) solution (1 μg/mL) diluted with buffer A (carbonate buffer, pH 9.6) was added at 50 μL/well, followed by incubation at 4° C. overnight. After washing once with PBS, Block Ace (Snow Brand Milk Products Company, Limited) was added at 150 μL/well, followed by incubation at room temperature for 2 hours. After removal, washing was conducted once with PBS. 100 μL of each test substance diluted with a binding buffer (DMEM containing 40 mM HEPES, 0.2% BSA, and 4 mM MnCl2) to various concentrations and 100 μL of RPMI-8866 cells (2×10^6 cell/mL) were added to plates coated with MAdCAM-1/Fc (5×10^5 cells/well) with human serum being contained at a final concentration of 50%, followed by incubation at 30° C. for 15 minutes to 60 minutes. After the cells were bound to each well, unbound cells were removed by washing with PBS. To the plates, buffer C (PBS containing 1.5% Triton X-100) was added at 50 μL/well to lyse the bound RPMI-8866 cells. To 30 μL of the cell lysate, 30 μL of Substrate Buffer (Promega, CytoTox 96 Non-Radioactive Cytotoxicity Assay) was added, and the reaction was allowed to proceed at room temperature in a dark place for 30 minutes. To each well, 30 μL of Stop Solution (Promega, CytoTox 96 Non-Radioactive Cytotoxicity Assay) was added, and the absorbance at 490 nm was measured by using a plate reader. Here, by the obtained absorbance, the activity of the lactate dehydrogenase (LDH) dissolved into the supernatant of each well was detected. In other words, the absorbance was proportional to the number of the RPMI-8866 cells bound to MAdCAM-1 and remaining on the plate. The test was duplicated. The binding ratios of the cells at various concentrations were determined, with the absorbance of a well containing no test substance taken as 100%. Then, the concentration IC50, at which 50% binding inhibition was achieved, was calculated.
T1 sequence (P13612 34-1032): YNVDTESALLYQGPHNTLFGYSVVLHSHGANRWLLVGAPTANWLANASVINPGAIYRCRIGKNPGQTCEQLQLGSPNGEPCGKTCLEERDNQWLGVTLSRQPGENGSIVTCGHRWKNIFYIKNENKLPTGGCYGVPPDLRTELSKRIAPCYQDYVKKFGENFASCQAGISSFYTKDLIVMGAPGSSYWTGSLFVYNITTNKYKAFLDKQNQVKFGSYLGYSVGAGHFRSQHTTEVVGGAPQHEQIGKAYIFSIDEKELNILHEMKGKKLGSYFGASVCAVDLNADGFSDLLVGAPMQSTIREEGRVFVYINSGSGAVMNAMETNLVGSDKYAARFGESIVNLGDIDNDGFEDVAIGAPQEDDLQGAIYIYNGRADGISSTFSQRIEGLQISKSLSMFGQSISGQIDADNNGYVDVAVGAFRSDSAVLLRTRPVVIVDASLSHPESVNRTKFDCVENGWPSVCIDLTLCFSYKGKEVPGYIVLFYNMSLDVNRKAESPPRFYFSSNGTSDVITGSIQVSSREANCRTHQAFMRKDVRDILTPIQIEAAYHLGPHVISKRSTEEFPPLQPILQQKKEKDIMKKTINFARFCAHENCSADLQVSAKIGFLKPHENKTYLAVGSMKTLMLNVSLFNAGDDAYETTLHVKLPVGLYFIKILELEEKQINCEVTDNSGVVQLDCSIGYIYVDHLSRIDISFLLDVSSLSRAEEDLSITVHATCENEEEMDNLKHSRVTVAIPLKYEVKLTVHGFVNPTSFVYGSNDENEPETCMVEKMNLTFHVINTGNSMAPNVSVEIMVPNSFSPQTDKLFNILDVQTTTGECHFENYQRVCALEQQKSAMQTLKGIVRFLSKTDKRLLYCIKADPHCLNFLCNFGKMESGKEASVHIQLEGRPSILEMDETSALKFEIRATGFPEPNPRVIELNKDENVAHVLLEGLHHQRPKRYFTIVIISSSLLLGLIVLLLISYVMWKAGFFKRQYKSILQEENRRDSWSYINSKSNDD
T1 sequence (P26010 20-798): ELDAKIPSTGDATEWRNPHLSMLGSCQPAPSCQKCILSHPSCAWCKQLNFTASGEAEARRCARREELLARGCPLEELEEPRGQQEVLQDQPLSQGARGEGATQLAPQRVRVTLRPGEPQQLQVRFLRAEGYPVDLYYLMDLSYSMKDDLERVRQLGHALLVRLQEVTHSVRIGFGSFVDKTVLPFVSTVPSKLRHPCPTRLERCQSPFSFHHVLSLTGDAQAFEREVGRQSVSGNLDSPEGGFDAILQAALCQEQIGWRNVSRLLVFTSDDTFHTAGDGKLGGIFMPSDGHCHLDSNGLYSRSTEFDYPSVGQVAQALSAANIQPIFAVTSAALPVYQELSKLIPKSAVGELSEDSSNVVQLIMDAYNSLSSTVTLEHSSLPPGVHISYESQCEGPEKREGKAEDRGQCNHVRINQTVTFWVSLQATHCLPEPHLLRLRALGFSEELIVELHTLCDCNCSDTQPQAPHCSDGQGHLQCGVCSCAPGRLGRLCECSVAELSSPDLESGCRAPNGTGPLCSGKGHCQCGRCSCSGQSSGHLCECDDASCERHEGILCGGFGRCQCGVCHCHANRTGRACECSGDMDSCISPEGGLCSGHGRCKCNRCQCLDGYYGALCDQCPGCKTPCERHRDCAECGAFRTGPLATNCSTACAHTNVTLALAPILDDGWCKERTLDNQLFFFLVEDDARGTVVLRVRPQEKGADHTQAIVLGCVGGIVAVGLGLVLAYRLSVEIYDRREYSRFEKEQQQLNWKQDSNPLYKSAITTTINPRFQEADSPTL

A further assay deals with α4β1 integrin (Homo sapiens (Human), UniProt P05556+P13612). As to the kind of experiment: VCAM-1/α4β1 integrin binding inhibitory activity evaluation test (Jurkat cell adhesion to VCAM-1/Fc). Conditions: Jurkat cells binding to recombinant human VCAM-1/Fc. Here is the method: The ability of test substances to inhibit the binding of a human T-cell line, Jurkat, which is known to express α4β1 integrin, to VCAM-1 was measured. To 96-well microtiter plates, recombinant human VCAM-1/Fc (R&D systems) solution (1 μg/mL) diluted with buffer A (carbonate buffer, pH 9.6) was added at 50 μL/well, followed by incubation at 4° C. overnight. After washing once with PBS, Block Ace (Snow Brand Milk Products Company, Limited) was added at 150 μL/well, followed by incubation at room temperature for 2 hours. After removal, washing was conducted once with PBS. 100 μL of each test substance diluted with a binding buffer (DMEM containing 40 mM HEPES, 0.2% BSA, and 4 mM MnCl2) to various concentrations and 100 μL of the Jurkat cells (2×10^6 cell/mL) were added to the plates coated with VCAM-1/Fc (5×10^5 cells/well), followed by incubation at 30° C. for 15 minutes to 60 minutes. After the cells were bound to each well, unbound cells were removed by washing with PBS. To the plates, buffer C (PBS containing 1.5% Triton X-100) was added at 50 μL/well to lyse the bound Jurkat cells. To 30 μL of the cell lysate, 30 μL of Substrate Buffer (Promega, CytoTox 96 Non-Radioactive Cytotoxicity Assay) was added, and the reaction was allowed to proceed at room temperature in a dark place for 30 minutes. To each well, 30 μL of Stop Solution (Promega, CytoTox 96 Non-Radioactive Cytotoxicity Assay) was added, and the absorbance at 490 nm was measured by using a plate reader. Here, by the obtained absorbance, the activity of the lactate dehydrogenase (LDH) dissolved into the supernatant of each well was detected. In other words, the absorbance was proportional to the number of the Jurkat cells bound to VCAM-1 and remaining on the plate. The test was duplicated. The binding ratios of the cells at various concentrations were determined, with the absorbance of a well containing no test substances taken as 100%. Then, the concentration IC50, at which 50% binding inhibition was achieved, was calculated. […] Note that, among the compounds synthesized in the corresponding Examples, the compounds in the free form (Compounds A-1 to A-39) were used as the test compounds. Hereinafter, the same shall apply.
Chain of α4β1 integrin (P13612 34-1032): as the sequence (P13612 34-1032) above
Chain of α4β1 integrin (P05556 21-798): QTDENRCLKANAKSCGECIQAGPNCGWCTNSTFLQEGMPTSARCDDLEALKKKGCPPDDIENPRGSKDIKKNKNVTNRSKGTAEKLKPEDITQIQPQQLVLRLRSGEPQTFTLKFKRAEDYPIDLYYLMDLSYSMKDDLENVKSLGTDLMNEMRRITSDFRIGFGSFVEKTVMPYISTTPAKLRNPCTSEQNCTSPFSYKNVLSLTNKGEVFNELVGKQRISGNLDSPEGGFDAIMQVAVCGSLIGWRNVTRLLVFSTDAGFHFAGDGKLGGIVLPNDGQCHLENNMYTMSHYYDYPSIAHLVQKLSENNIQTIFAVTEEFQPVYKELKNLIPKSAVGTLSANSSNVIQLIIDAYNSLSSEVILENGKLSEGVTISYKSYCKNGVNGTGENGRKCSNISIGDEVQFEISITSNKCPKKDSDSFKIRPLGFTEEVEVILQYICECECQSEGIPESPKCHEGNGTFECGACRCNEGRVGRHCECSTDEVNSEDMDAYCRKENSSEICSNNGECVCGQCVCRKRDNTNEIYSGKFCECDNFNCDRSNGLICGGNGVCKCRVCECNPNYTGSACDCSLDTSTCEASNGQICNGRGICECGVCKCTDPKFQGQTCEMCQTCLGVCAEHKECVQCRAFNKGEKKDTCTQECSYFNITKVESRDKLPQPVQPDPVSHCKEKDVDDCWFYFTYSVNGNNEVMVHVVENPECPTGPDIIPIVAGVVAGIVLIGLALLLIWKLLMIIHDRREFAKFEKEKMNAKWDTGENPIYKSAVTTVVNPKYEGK

For assay [2], the target named is T1, α4β7 integrin. As to the kind of experiment: MAdCAM-1/α4β7 integrin binding inhibitory activity evaluation test (RPMI-8866 cell adhesion to MAdCAM-1/Fc). Conditions: for Selectivity: IC50 in VCAM-1/α4β1 test divided by IC50 in MAdCAM-1/α4β7 test; for IC50: RPMI-8866 cells binding to recombinant mouse MAdCAM-1/Fc, no serum. On the procedure:
as §1, with “systems) solution (0.75 μg/mL) diluted” for “systems) solution (1 μg/mL) diluted”, “A (carbonate buffer solution, pH 9.6)” for “A (carbonate buffer, pH 9.6)”, “diluted with binding buffer” for “diluted with a binding buffer”, “added to the plates coated” for “added to plates coated”, “MAdCAM-1/Fc (5×10^5 cells/well), followed by” for “MAdCAM-1/Fc (5×10^5 cells/well) with human serum being contained at a final concentration of 50%, followed by”, “was calculated. […] Note that the selectivity in the table was determined by dividing the IC50 value in VCAM-1/α4β1 Integrin Binding Inhibitory Activity Evaluation Test by the IC50 value in the MAdCAM-1/α4β7 integrin binding inhibitory activity evaluation test.” for “was calculated.”

In general, IC50 refers to the midpoint of a concentration-inhibition curve. Turning to `Cn1c(=O)n(-c2ccc(C[C@H](NC(=O)c3c(F)cc(NS(=O)(=O)c4ccc(-c5ncc[nH]5)cc4)cc3F)C(=O)O)cc2)c(=O)c2ccncc21` [Example 48, N-[2,6-Difluoro-4-({[4-(1H-imidazol-2-yl)phenyl]sulfonyl}amino)benzoyl]-4-(1-methyl-2,4-dioxo-1,4-dihydropyrido[3,4-d]pyrimidin-3(2H)-yl)-L-phenylalanine], the figures for the IC50 on α4β7 integrin [1], at α4β1 integrin and on α4β7 integrin [2] were 14 nM, 54 nM and 0.24 nM, respectively. The compound also showed a Selectivity at α4β7 integrin [2] of 230.

On to `Cc1cc(-c2ccc(S(=O)(=O)Nc3cc(F)c(C(=O)N[C@@H](Cc4ccc(-n5c(=O)c6ccncc6n(C)c5=O)cc4)C(=O)O)c(F)c3)cc2)ccn1` [Example 49, N-[2,6-Difluoro-4-({[4-(2-methylpyridin-4-yl)phenyl]sulfonyl}amino)benzoyl]-4-(1-methyl-2,4-dioxo-1,4-dihydropyrido[3,4-d]pyrimidin-3(2H)-yl)-L-phenylalanine], for which the IC50 on α4β7 integrin [1] was found to be 25 nM; on α4β1 integrin, 330 nM; on α4β7 integrin [2], 0.43 nM. The Selectivity at α4β7 integrin [2] turned out to be 770.

As to `Cc1ccc(-c2ccc(S(=O)(=O)Nc3cc(F)c(C(=O)N[C@@H](Cc4ccc(-n5c(=O)c6ccncc6n(C)c5=O)cc4)C(=O)O)c(F)c3)cc2)cn1` [Example 50, N-[2,6-Difluoro-4-({[4-(6-methylpyridin-3-yl)phenyl]sulfonyl}amino)benzoyl]-4-(1-methyl-2,4-dioxo-1,4-dihydropyrido[3,4-d]pyrimidin-3(2H)-yl)-L-phenylalanine], the IC50 on α4β7 integrin [1] came to 19 nM; on α4β1 integrin, 180 nM; on α4β7 integrin [2], 0.32 nM. Besides, the Selectivity at α4β7 integrin [2] was 560.

For `COc1ccc2c(c1)c(=O)n(-c1ccc(C[C@H](NC(=O)c3c(F)cc(NS(=O)(=O)c4ccc(-n5ccnn5)cc4)cc3F)C(=O)O)cc1)c(=O)n2C` [Example 51, N-[2,6-Difluoro-4-({[4-(1H-1,2,3-triazol-1-yl)phenyl]sulfonyl}amino)benzoyl]-4-(6-methoxy-1-methyl-2,4-dioxo-1,4-dihydroquinazolin-3(2H)-yl)-L-phenylalanine], the figures for the IC50 on α4β7 integrin [1], on α4β1 integrin and on α4β7 integrin [2] were 21 nM, 1500 nM and 6.9 nM, respectively. The compound further showed a Selectivity on α4β7 integrin [2] of 220.

`CNCc1ccc(S(=O)(=O)Nc2ccc(C(=O)N[C@@H](Cc3ccc(-n4c(=O)c5ccncc5n(C)c4=O)cc3)C(=O)O)c(F)c2)cc1` [Example 52, N-{2-Fluoro-4-[({4-[(methylamino)methyl]phenyl}sulfonyl)amino]benzoyl}-4-(1-methyl-2,4-dioxo-1,4-dihydropyrido[3,4-d]pyrimidin-3(2H)-yl)-L-phenylalanine]: the values for the IC50 at α4β7 integrin [1], at α4β1 integrin and on α4β7 integrin [2] were 13 nM, 550 nM and 2.6 nM, respectively. The compound further came in with a Selectivity on α4β7 integrin [2] of 210.

With `Cn1c(=O)n(-c2ccc(C[C@H](NC(=O)c3c(F)cc(NS(=O)(=O)c4ccc(-c5ccsc5)cc4)cc3F)C(=O)O)cc2)c(=O)c2ccncc21` [Example 53, N-[2,6-Difluoro-4-({[4-(3-thienyl)phenyl]sulfonyl}amino)benzoyl]-4-(1-methyl-2,4-dioxo-1,4-dihydropyrido[3,4-d]pyrimidin-3(2H)-yl)-L-phenylalanine], the figures for the IC50 at α4β7 integrin [1], on α4β1 integrin and on α4β7 integrin [2] were 24 nM, 740 nM and 2.8 nM, respectively. Besides, the Selectivity at α4β7 integrin [2] is given as 260.

On to `Cn1c(=O)n(-c2ccc(C[C@H](NC(=O)c3c(F)cc(NS(=O)(=O)c4ccc(-c5cncnc5)cn4)cc3F)C(=O)O)cc2)c(=O)c2ccncc21` [Example 54, N-(2,6-Difluoro-4-{[(5-pyrimidin-5-yl-pyridin-2-yl)sulfonyl]amino}benzoyl)-4-(1-methyl-2,4-dioxo-1,4-dihydropyrido[3,4-d]pyrimidin-3(2H)-yl)-L-phenylalanine], for which the IC50 at α4β7 integrin [1] worked out at 1.6 nM; on α4β1 integrin it was 18 nM; on α4β7 integrin [2], 0.077 nM. In addition, the Selectivity on α4β7 integrin [2] is listed as 230.

As for `Cn1c(=O)n(-c2ccc(C[C@H](NC(=O)c3c(F)cc(NS(=O)(=O)c4ccc(-n5cncn5)nc4)cc3F)C(=O)O)cc2)c(=O)c2ccncc21` [Example 55, N-[2,6-Difluoro-4-({[6-(1H-1,2,4-triazol-1-yl)pyridin-3-yl]sulfonyl}amino)benzoyl]-4-(1-methyl-2,4-dioxo-1,4-dihydropyrido[3,4-d]pyrimidin-3(2H)-yl)-L-phenylalanine], the IC50 at α4β7 integrin [1] is 4.6 nM; on α4β1 integrin, 45 nM; at α4β7 integrin [2], 0.27 nM. This compound had a Selectivity at α4β7 integrin [2] of 170.

With `Cn1ccc(=O)n(-c2ccc(C[C@H](NC(=O)c3c(F)cc(NS(=O)(=O)c4ccc(-n5cncn5)cn4)cc3F)C(=O)O)cc2)c1=O` [Example 56, N-[2,6-Difluoro-4-({[5-(1H-1,2,4-triazol-1-yl)pyridin-2-yl]sulfonyl}amino)benzoyl]-4-(3-methyl-2,6-dioxo-3,6-dihydropyrimidin-1(2H)-yl)-L-phenylalanine], the IC50 turned out to be 5.4 nM at α4β7 integrin [1], 160 nM at α4β1 integrin and 2 nM at α4β7 integrin [2]. Also, the Selectivity at α4β7 integrin [2] is on record as 80.

These data come from patent publication US9533985B2, “Sulfonamide derivative and medicinal use thereof” (EA Pharma Co., Ltd., priority 2012, dated 2017).
